From PMC5522071, “Preclinical development of G1T38: A novel, potent and selective inhibitor of cyclin dependent kinases 4/6 for use as an oral antineoplastic in patients with CDK4/6 sensitive tumors” (Oncotarget, 2017)
Read-outs that look alike come from different tables or passages of the source. One block for each compound: values may come before it.

Key:
ER+ MCF7 xenograft = test: MCF-7 breast cancer xenograft model; format: in vivo, mice; conditions: for tumor growth inhibition (TGI): after 27 days of treatment
Experimental: Tumors were measured every 3 to 4 days during treatment for up to 20 days post-treatment. […] South Texas Accelerated Research Therapeutics (START; San Antonio, Texas) evaluated the antitumor activity of G1T38 in a START Cell-Based Xenograft (START-CBX) tumor model, MCF-7, representing human breast cancer. Data collected from this efficacy study included animal weights, observations, and tumor dimensions. This information was used to determine agent tolerability based on weight change and gross physiologic changes, and anticancer activity based on tumor growth inhibition or regression. Study endpoint was Day 60. MCF-7 cells were harvested from culture and injected into immune-deficient mice and the study initiated at a mean tumor volume of approximately 150-250 mm^3. […] Tumor growth inhibition (%TGI) was calculated using the following equation: %TGI=(1-(((TVtmtfinal-TVtmtinitial))/((AVERAGE(TVctlfinal))-(AVERAGE(TVctlinital)))))*100.

H1975 xenograft = test: H1975 NSCLC xenograft model; format: in vivo, mice
Source text: To evaluate the efficacy of G1T38 in combination with EGFR inhibitors, the H1975 xenograft model was utilized. H1975 is a human NSCLC that harbors the […] mutations rendering resistance to erlotinib treatment.
Afatinib is an irreversible second generation pan-ErbB inhibitor developed as a first-line treatment of patients with metastatic NSCLC whose tumors harbor EGFR mutations or deletions as well as in patients with metastatic disease that progressed after platinum-based chemotherapy.
Female NCI Ath/nu mice were implanted with H1975 NSC lung adenocarcinoma model. Once tumors reached an average size of 100- 150 mm^3, mice were randomized into treatment cohorts. Mice were orally administered daily afatinib (20 mg/kg, Genentech/OSI), erlotinib (70 mg/kg, LC Labs), or G1T38 (50 or 100 mg/kg), as single agents or in combination (G1T38 + erlotinib or G1T38 + afatinib) for the duration of the study. Tumors were measured twice weekly until mice reached tumor burden of 1500 mm^3.

neutrophils = test: Peripheral blood analysis, 28 days daily oral dosing
[1] = parameters: method as in earlier work; conditions: Dog; cited from earlier work
7-day continuous oral PK = conditions: C57BL/6, mouse, plasma
[2] = cited from earlier work
[3] = parameters: method as in earlier work; conditions: Rat; cited from earlier work
[4] = parameters: method as in earlier work; conditions: Mouse; cited from earlier work

Compound: CC/C(=C(\c1ccccc1)c1ccc(/C=C/C(=O)O)cc1)c1ccccc1 [GW5638, reference compound]
TGI as single agents (GW5638 study) (ER+ MCF7 xenograft; G1T38 25 or 50 mg/kg alone, GW5638 25 mg/kg alone): modest TGI

Compound: CN(C)C/C=C/C(=O)Nc1cc2c(Nc3ccc(F)c(Cl)c3)ncnc2cc1O[C@H]1CCOC1 [afatinib, reference compound]
time at which tumors began to regrow (H1975 xenograft; afatinib only cohort, 20 mg/kg): ≤ 14 days

Compound: C#Cc1cccc(Nc2ncnc3cc(OCCOC)c(OCCOC)cc23)c1 [erlotinib, reference compound]
difference from vehicle treated mice (H1975 xenograft; 70 mg/kg daily): no significant difference

decrease in neutrophils compared with G1T38 (neutrophils): similar
concentration at 24 h (7-day continuous oral PK): ~600 nM
Compound: CC(=O)c1c(C)c2cnc(Nc3ccc(N4CCNCC4)cn3)nc2n(C2CCCC2)c1=O [palbociclib]
tumor growth inhibition (TGI) (ER+ MCF7 xenograft; 10 mg/kg once daily oral): 18%
tumor growth inhibition (TGI) (ER+ MCF7 xenograft; 50 mg/kg once daily oral): 66%
time to tumor regression (ER+ MCF7 xenograft; 100 mg/kg daily oral): ≤ 10 days
tumor growth inhibition (TGI) (ER+ MCF7 xenograft; 100 mg/kg once daily oral): 87%
T1/2 [1]: 20.7 h
T1/2 ([2]; Human): 29 h
half-life ([2]; in humans): > 24 h
T1/2 [3]: 2.4 to 4.9 h
T1/2 [4]: 2.5 to 4.2 h
